Laboratory results: ChEMBL document CHEMBL1158509, “Novel selective thiazoleacetic acids as CRTH2 antagonists developed from in silico derived hits. Part 2” (Bioorg Med Chem Lett, 2010)

What was measured:
[1] = target: T1, Prostaglandin D2 receptor 2 (Homo sapiens, UniProt Q9Y5Y4); assay: Displacement of[3H]PGD2 from human CRTH2 receptor expressed in […] cells; format: cell-based
T1 sequence (Q9Y5Y4 whole entry): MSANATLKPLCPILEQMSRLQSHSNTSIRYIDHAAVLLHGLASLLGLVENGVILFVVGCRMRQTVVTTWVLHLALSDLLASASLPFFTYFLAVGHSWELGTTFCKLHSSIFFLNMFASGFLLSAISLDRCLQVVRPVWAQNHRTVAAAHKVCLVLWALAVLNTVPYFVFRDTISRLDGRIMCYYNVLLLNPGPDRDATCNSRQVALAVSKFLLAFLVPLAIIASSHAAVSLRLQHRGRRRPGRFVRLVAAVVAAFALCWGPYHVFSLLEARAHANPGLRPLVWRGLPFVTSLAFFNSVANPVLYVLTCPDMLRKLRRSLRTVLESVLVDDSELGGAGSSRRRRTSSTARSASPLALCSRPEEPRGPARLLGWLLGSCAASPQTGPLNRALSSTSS

[2] = target: T1, Prostaglandin D2 receptor 2; assay: Antagonist activity at human CRTH2 receptor expressed in […] cells assessed as inhibition of beta arrestin translocation by bioluminescence resonance energy transfer assay; format: functional, cell-based
[3] = target: T2, Prostaglandin D2 receptor 2 (Homo sapiens) (UniProt Q9Y5Y4); assay: Antagonist activity at human CRTH2 receptor expressed in […] cells assessed as inhibition of beta arrestin translocation by bioluminescence resonance energy transfer assay relative to control; format: functional, cell-based
T2 sequence (whole entry): T1 sequence (Q9Y5Y4 whole entry)

IC50 [1] [nM] | IC50 [2] [nM] | Efficacy [3] [%] | SMILES
1.4 | 18 | 80 | O=C(O)Cc1sc(C(c2ccc(F)cc2)c2ccc(F)cc2)nc1-c1cccc(F)c1
41 | 570 | 30 | O=C(O)Cc1sc(Cc2cccc3ccccc23)nc1-c1ccc(Cl)cc1
 | 1300 | 50 | O=C(O)Cc1sc(-c2ccc(Oc3ccccc3)cc2)nc1-c1ccc(Cl)cc1
4.1 | 43 | 80 | O=C(O)Cc1sc(C(c2ccccc2)c2ccccc2)nc1-c1ccc(F)c(F)c1
380 | > 100000 | 80 | CN(C)c1cc(-c2nc(C(c3ccc(F)cc3)c3ccc(F)cc3)sc2CC(=O)O)ccn1
100 | 500 | 60 | Nc1ccc(-c2nc(C(c3ccc(F)cc3)c3ccc(F)cc3)sc2CC(=O)O)cn1
40 | 370 | 80 | CS(=O)(=O)Nc1cccc(-c2nc(C(c3ccc(F)cc3)c3ccc(F)cc3)sc2CC(=O)O)c1
3.5 | 41 | 80 | O=C(O)Cc1sc(C(c2ccc(F)cc2)c2ccc(F)cc2)nc1-c1ccc(F)c(F)c1
150 | 96 | 50 | O=C(O)Cc1sc(Nc2cccc3ccccc23)nc1-c1ccc(Cl)cc1
29 | 380 | 60 | COc1cc(-c2nc(C(c3ccc(F)cc3)c3ccc(F)cc3)sc2CC(=O)O)ccn1
230 | > 100000 | 80 | O=C(O)Cc1sc(C(c2ccc(F)cc2)c2ccc(F)cc2)nc1-c1ccnc(N2CCCC2)c1
25 | 170 | 80 | CNc1cc(-c2nc(C(c3ccc(F)cc3)c3ccc(F)cc3)sc2CC(=O)O)ccn1
61 | 310 | 80 | COc1ccc(C(c2ccccn2)c2nc(-c3ccc(Cl)cc3)c(CC(=O)O)s2)cc1 (configuration not stated)
17 | 36 | 80 | O=C(O)Cc1sc(C(c2ccccc2)c2ccc(F)cc2)nc1-c1ccc(Cl)cc1 (configuration not stated)
> 100000 | > 100000 | 50 | Nc1nc(-c2ccc(Cl)cc2)c(CC(=O)O)s1
68 | 510 | 80 | O=C(O)Cc1sc(C(c2ccc(F)cc2)c2ccc(F)cc2)nc1-c1cccnc1
810 | 1900 | 55 | O=C(O)Cc1sc(C(c2ccccc2)c2ccccn2)nc1-c1ccc(Cl)cc1 (configuration not stated)
340 | 32000 | 50 | O=C(O)Cc1sc(CC(c2ccccc2)c2ccccc2)nc1-c1ccc(Cl)cc1
650 | 390 | 50 | O=C(O)Cc1sc(NCCc2ccccc2)nc1-c1ccc(Cl)cc1
 | 960 | 50 | O=C(O)Cc1sc(-c2ccccc2)nc1-c1ccc(Cl)cc1 [FENTIAZAC]
 |  | 50 | O=C(O)Cc1sc(Cc2ccccc2-c2ccccc2)nc1-c1ccc(Cl)cc1

IC50 [1] [nM] | IC50 [2] [nM] | Efficacy [3] [%] | SMILES
280 | 3300 | 30 | O=C(O)Cc1sc(C(c2ccc(F)cc2)c2ccc(F)cc2)nc1-c1ccn[nH]1
68 | 890 |  | O=C(O)Cc1sc(C(c2ccc(F)cc2)c2ccc(F)cc2)nc1-c1cc[nH]c(=O)c1
440 | 2300 | 30 | O=C(O)Cc1sc(NCc2ccccc2)nc1-c1ccc(Cl)cc1
1500 | > 100000 | 80 | NS(=O)(=O)c1ccc(-c2nc(C(c3ccc(F)cc3)c3ccc(F)cc3)sc2CC(=O)O)cc1
45 | 75 | 80 | O=C(O)Cc1sc(C(c2ccccc2)c2ccc(Cl)cc2)nc1-c1ccc(Cl)cc1 (configuration not stated)
660 | > 100000 | 80 | O=C(O)Cc1sc(C(c2ccc(F)cc2)c2ccc(F)cc2)nc1-c1ccnc(N2CCC2)c1
0.48 | 4.7 | 80 | O=C(O)Cc1sc(C(c2ccc(F)cc2)c2ccc(F)cc2)nc1-c1ccnc(F)c1
10 | 64 | 80 | O=C(O)Cc1sc(C(c2ccccc2)c2ccc(F)c(F)c2)nc1-c1ccc(F)cc1 (configuration not stated)
570 | 370 | 80 | O=C(O)Cc1sc(C(c2ccccc2)c2ccccc2)nc1-c1ccccc1
3.4 | 30 | 80 | O=C(O)Cc1sc(C(c2ccccc2)c2ccc(O)cc2)nc1-c1ccc(F)cc1 (configuration not stated)
35 | 340 | 80 | O=C(O)Cc1sc(C(c2ccc(F)cc2)c2ccc(F)cc2)nc1-c1cc(F)cc(F)c1
3.9 | 31 | 80 | COc1ccc(C(c2ccc(OC)cc2)c2nc(-c3ccc(F)cc3)c(CC(=O)O)s2)cc1
56 | 510 | 50 | O=C(O)Cc1sc(C(Cc2ccccc2)c2ccccc2)nc1-c1ccc(Cl)cc1 (configuration not stated)
590 | 6300 | 30 | CS(=O)(=O)c1cccc(-c2nc(C(c3ccc(F)cc3)c3ccc(F)cc3)sc2CC(=O)O)c1
14 | 130 | 80 | O=C(O)Cc1sc(C(c2ccc(F)cc2)c2ccc(F)cc2)nc1-c1ccoc1
5.4 | 110 | 80 | O=C(O)Cc1sc(C(c2ccc(F)cc2)c2ccc(F)cc2)nc1-c1cc(F)nc(F)c1
16 | 220 | 80 | O=C(O)Cc1sc(C(c2ccc(F)cc2)c2ccc(F)cc2)nc1-c1cn[nH]c1
3.1 | 53 | 80 | Cc1cc(-c2nc(C(c3ccc(F)cc3)c3ccc(F)cc3)sc2CC(=O)O)ccn1
2.9 | 29 | 80 | O=C(O)Cc1sc(C(c2ccccc2)c2ccccc2)nc1-c1cccc(F)c1
 |  | 50 | O=C(O)Cc1sc(Nc2ccccc2)nc1-c1ccc(Cl)cc1
220 | 1400 | 30 | Nc1cc(-c2nc(C(c3ccc(F)cc3)c3ccc(F)cc3)sc2CC(=O)O)cc(F)n1

IC50 [1] [nM] | IC50 [2] [nM] | Efficacy [3] [%] | SMILES
370 | 910 | 55 | COc1ccc(-c2nc(C(c3ccccc3)c3ccccc3)sc2CC(=O)O)cc1
250 | 450 | 50 | O=C(O)Cc1sc(CSc2ccccc2)nc1-c1ccc(Cl)cc1
9.7 | 180 | 80 | O=C(O)Cc1sc(C(c2ccc(F)cc2)c2ccc(F)cc2)nc1-c1ccc(Cl)cc1
520 | 870 | 50 | O=C(O)Cc1sc(NC(=O)c2ccccc2)nc1-c1ccc(Cl)cc1
 | > 100000 | 80 | COc1ccc(OC)c(-c2nc(C(c3ccccc3)c3ccccc3)sc2CC(=O)O)c1
57 | 520 | 80 | N#Cc1cc(-c2nc(C(c3ccc(F)cc3)c3ccc(F)cc3)sc2CC(=O)O)ccc1F
18 | 140 | 80 | O=C(O)Cc1sc(C(c2ccc(F)cc2)c2ccc(F)cc2)nc1-c1ccco1
1300 | 3500 | 80 | Cn1cc(-c2nc(C(c3ccc(F)cc3)c3ccc(F)cc3)sc2CC(=O)O)cn1
8.4 | 76 | 80 | COc1ccc(C(c2ccccc2)c2nc(-c3ccc(Cl)cc3)c(CC(=O)O)s2)cc1 (configuration not stated)
150 | 1500 | 30 | N#Cc1ccc(-c2nc(C(c3ccc(F)cc3)c3ccc(F)cc3)sc2CC(=O)O)cc1
9400 | > 100000 | 80 | COc1ccc(Cl)cc1-c1nc(C(c2ccccc2)c2ccccc2)sc1CC(=O)O
880 | > 100000 | 80 | Cc1cc(-c2nc(C(c3ccc(F)cc3)c3ccc(F)cc3)sc2CC(=O)O)cnc1N
20 | 220 | 80 | N#Cc1cccc(-c2nc(C(c3ccc(F)cc3)c3ccc(F)cc3)sc2CC(=O)O)c1
14 | 79 | 80 | O=C(O)Cc1sc(C(c2ccccc2)c2ccc(Cl)cc2)nc1-c1ccc(F)cc1 (configuration not stated)
52 | 550 | 50 | CC(=O)N1CCC(c2ccccc2)(c2nc(-c3ccc(Cl)cc3)c(CC(=O)O)s2)CC1
16 | 240 | 80 | O=C(O)Cc1sc(C(c2ccc(F)cc2)c2ccc(F)cc2)nc1-c1ccccc1
 |  | 50 | O=C(O)Cc1sc(Cc2ccccc2)nc1-c1ccc(Cl)cc1
140 | 710 | 55 | NS(=O)(=O)c1cccc(-c2nc(C(c3ccc(F)cc3)c3ccc(F)cc3)sc2CC(=O)O)c1
360 | > 100000 | 80 | CC(=O)N1CCN(c2cc(-c3nc(C(c4ccc(F)cc4)c4ccc(F)cc4)sc3CC(=O)O)ccn2)CC1
32 | 370 | 50 | O=C(O)Cc1sc(COc2ccc(Cl)cc2)nc1-c1ccc(Cl)cc1
 |  | 60 | O=C(O)Cc1sc(C(c2ccc(F)cc2)c2ccc(F)cc2)nc1-c1ccnc(O)c1
